Holding throughout (format): functional
The subject of experiment [1] is Streptococcus pneumoniae. The experiment in a line: Antibacterial activity against clarithromycin resistance selected Streptococcus pneumoniae 3009 after 10 antibiotic-free subcultures by macrodilution method.
Experiment [2] deals with Streptococcus pneumoniae. The experiment in a line: Antibacterial activity against moxifloxacin resistance selected Streptococcus pneumoniae 1076 with ParC S79Y mutation after 10 antibiotic-free subcultures by macrodilution method.
In experiment [3] the test system is Streptococcus pneumoniae. As to the kind of experiment: Antibacterial activity against moxifloxacin resistance selected Streptococcus pneumoniae 3676 with GyrA E85G, GyrB S478I and ParC S79Y mutation after 10 antibiotic-free subcultures by macrodilution method.
Experiment [4] has as its system Streptococcus pneumoniae. As to the kind of experiment: Antibacterial activity against clarithromycin resistance selected Streptococcus pneumoniae 3676 after 10 antibiotic-free subcultures by macrodilution method.
Experiment [5] has as its system Streptococcus pneumoniae. The experiment in a line: Antibacterial activity against moxifloxacin resistance selected Streptococcus pneumoniae 3243 after 10 antibiotic-free subcultures by macrodilution method.
The subject of experiment [6] is Streptococcus pneumoniae. The experiment in a line: Antibacterial activity against gatifloxacin resistance selected Streptococcus pneumoniae 1076 with ParC S79Y mutation after 10 antibiotic-free subcultures by macrodilution method.
Experiment [7] concerns Streptococcus pneumoniae. The experiment in a line: Antibacterial activity against clarithromycin resistance selected Streptococcus pneumoniae 3243 with 23S rRNA A2059T mutation after 10 antibiotic-free subcultures by macrodilution method.
Experiment [8] relates to Streptococcus pneumoniae. As to the kind of experiment: Antibacterial activity against moxifloxacin resistance selected Streptococcus pneumoniae 3665 with GyrA S81Y mutation after 10 antibiotic-free subcultures by macrodilution method.
In experiment [9] the test system is Streptococcus pneumoniae. The experiment in a line: Antibacterial activity against gatifloxacin resistance selected Streptococcus pneumoniae 3009 after 10 antibiotic-free subcultures by macrodilution method.
Experiment [10] concerns Streptococcus pneumoniae. As to the kind of experiment: Antibacterial activity against moxifloxacin resistance selected Streptococcus pneumoniae 19 with GyrA S81F mutation after 10 antibiotic-free subcultures by macrodilution method.
The subject of experiment [11] is Streptococcus pneumoniae. As to the kind of experiment: Antibacterial activity against clarithromycin resistance selected Streptococcus pneumoniae 3665 after 10 antibiotic-free subcultures by macrodilution method.
In experiment [12] the test system is Streptococcus pneumoniae. As to the kind of experiment: Antibacterial activity against levofloxacin resistance selected Streptococcus pneumoniae 19 with GyrA S81Y and ParC D83Y mutation after 10 antibiotic-free subcultures by macrodilution method.
The subject of experiment [13] is Streptococcus pneumoniae. As to the kind of experiment: Antibacterial activity against azithromycin resistance selected Streptococcus pneumoniae 3243 with L22 insertion 93SFRPRA94 mutation after 10 antibiotic-free subcultures by macrodilution method.
For experiment [14], the system named is Streptococcus pneumoniae. As to the kind of experiment: Antibacterial activity against moxifloxacin resistance selected Streptococcus pneumoniae 3009 with GyrA S81F and ParC D83N mutation after 10 antibiotic-free subcultures by macrodilution method.
Experiment [15] deals with Streptococcus pneumoniae. As to the kind of experiment: Antibacterial activity against gatifloxacin resistance selected Streptococcus pneumoniae 37 with GyrA S81Y, GyrB E474K and ParC S79Y mutation after 10 antibiotic-free subcultures by macrodilution method.
Experiment [16] relates to Streptococcus pneumoniae. The experiment in a line: Antibacterial activity against levofloxacin resistance selected Streptococcus pneumoniae 3009 with GyrA S81Y and ParC S79Y mutation after 10 antibiotic-free subcultures by macrodilution method.
Experiment [17] concerns Streptococcus pneumoniae. As to the kind of experiment: Antibacterial activity against moxifloxacin resistance selected Streptococcus pneumoniae 24 with GyrA S81Y, GyrB P413S and ParC S79F mutation after 10 antibiotic-free subcultures by macrodilution method.
Experiment [18] relates to Streptococcus pneumoniae. As to the kind of experiment: Antibacterial activity against azithromycin resistance selected Streptococcus pneumoniae 2527 after 10 antibiotic-free subcultures by macrodilution method.
Experiment [19] concerns Streptococcus pneumoniae. The experiment in a line: Antibacterial activity against Streptococcus pneumoniae assessed as period of suppression of bacterial growth.
Experiment [20] relates to Streptococcus pneumoniae. The experiment in a line: Antibacterial activity against azithromycin resistance selected Streptococcus pneumoniae 1077 with 23S rRNA A2058G mutation after 10 antibiotic-free subcultures by macrodilution method.

Values after ≈ are worked out from the molar mass of the structure shown.

As for `CO/N=C(\C(=O)N[C@@H]1C(=O)N2C(C(=O)O)=C(COC(N)=O)CS[C@H]12)c1ccco1` [CEFUROXIME], the MIC was 0.03 µg/mL (≈ 0.0707 µM) against Streptococcus pneumoniae [1]; 0.03 µg/mL (≈ 0.0707 µM) against Streptococcus pneumoniae [2]; 0.125 µg/mL (≈ 0.295 µM) in the experiment with Streptococcus pneumoniae [3]; 0.125 µg/mL (≈ 0.295 µM) with Streptococcus pneumoniae [4]; 0.25 µg/mL (≈ 0.589 µM) in the experiment with Streptococcus pneumoniae [5]; 0.125 µg/mL (≈ 0.295 µM) in the experiment on Streptococcus pneumoniae [6]. In addition, the MIC in the experiment on Streptococcus pneumoniae [7] was determined as 0.25 µg/mL (≈ 0.589 µM); in the experiment on Streptococcus pneumoniae [8], 0.5 µg/mL (≈ 1.18 µM); in the experiment with Streptococcus pneumoniae [9], 0.03 µg/mL (≈ 0.0707 µM); in the experiment with Streptococcus pneumoniae [10], 2 µg/mL (≈ 4.71 µM); in the experiment with Streptococcus pneumoniae [11], 0.125 µg/mL (≈ 0.295 µM); against Streptococcus pneumoniae [12], 2 µg/mL (≈ 4.71 µM). In addition, the MIC against Streptococcus pneumoniae [13] is 0.5 µg/mL (≈ 1.18 µM); in the experiment with Streptococcus pneumoniae [14], 0.03 µg/mL (≈ 0.0707 µM); against Streptococcus pneumoniae [15], 2 µg/mL (≈ 4.71 µM); against Streptococcus pneumoniae [16], ≤ 0.016 µg/mL; in the experiment with Streptococcus pneumoniae [17], 2 µg/mL (≈ 4.71 µM); against Streptococcus pneumoniae [18] it was 16 µg/mL (≈ 37.7 µM). This compound came in with an MIC in the experiment on Streptococcus pneumoniae [20] of 0.03 µg/mL (≈ 0.0707 µM). The “Post Antibiotic Effe” value in the experiment with Streptococcus pneumoniae [19] came out at 1.5 h.

For the compound `C[C@@H](O)[C@H]1C(=O)N2C(C(=O)O)=C(SCCNC=N)C[C@H]12` [IMIPENEM ANHYDROUS], the MIC was ≤ 0.004 µg/mL against Streptococcus pneumoniae [1]; 0.008 µg/mL (≈ 0.0267 µM) in the experiment on Streptococcus pneumoniae [2]; 0.03 µg/mL (≈ 0.1 µM) with Streptococcus pneumoniae [3]; 0.016 µg/mL (≈ 0.0534 µM) against Streptococcus pneumoniae [4]; 0.004 µg/mL (≈ 0.0134 µM) with Streptococcus pneumoniae [5]; 0.008 µg/mL (≈ 0.0267 µM) against Streptococcus pneumoniae [6]. Besides, the MIC with Streptococcus pneumoniae [7] came out at 0.03 µg/mL (≈ 0.1 µM); with Streptococcus pneumoniae [8], 0.03 µg/mL (≈ 0.1 µM); against Streptococcus pneumoniae [9] it was 0.008 µg/mL (≈ 0.0267 µM); with Streptococcus pneumoniae [10] it was 0.5 µg/mL (≈ 1.67 µM); in the experiment on Streptococcus pneumoniae [11] it was 0.03 µg/mL (≈ 0.1 µM); against Streptococcus pneumoniae [12], 0.5 µg/mL (≈ 1.67 µM). Further, the MIC in the experiment on Streptococcus pneumoniae [13] was 0.03 µg/mL (≈ 0.1 µM); with Streptococcus pneumoniae [14] it was 0.008 µg/mL (≈ 0.0267 µM); against Streptococcus pneumoniae [15], 0.5 µg/mL (≈ 1.67 µM); against Streptococcus pneumoniae [16], ≤ 0.004 µg/mL; with Streptococcus pneumoniae [17] it was 0.5 µg/mL (≈ 1.67 µM); against Streptococcus pneumoniae [18], 0.5 µg/mL (≈ 1.67 µM). The same compound gave an MIC in the experiment with Streptococcus pneumoniae [20] of 0.008 µg/mL (≈ 0.0267 µM). Besides, the “Post Antibiotic Effe” value in the experiment on Streptococcus pneumoniae [19] amounted to 1.7 h.

In the experiment with Streptococcus pneumoniae [15], `C[C@H]1COc2c(N3CCN(C)CC3)c(F)cc3c(=O)c(C(=O)O)cn1c23.C[C@H]1COc2c(N3CCN(C)CC3)c(F)cc3c(=O)c(C(=O)O)cn1c23.O` [LEVOFLOXACIN] registered an MIC of 64 µg/mL. The “Post Antibiotic Effe” value in the experiment with Streptococcus pneumoniae [19] amounted to 1.3 h.

Source of the values: ChEMBL document CHEMBL1142186, “Multistep resistance selection and postantibiotic-effect studies of the antipneumococcal activity of LBM415 compared to other agents” (2007).
